# Assay results as given in US12409206B2, “Use of cyclosporine analogues for treating fibrosis” (Hepion Pharmaceuticals, Inc., priority 2020, dated 2025).
# Tests used:
# [1] = tested on: human precision cut liver slices (PCLS); assay: PCLS RNA-Seq, Nonstimulation Protocol: Non-stimulated+CRV vs Non-stimulated+Vehicle; type: cell-based; conditions: for log2FoldChange: Non-stimulated+CRV vs Non-stimulated+Vehicle; for fold change in RNA: absence of TGFβ+PDGF-BB, universal in all donors
# Procedure: PCLS were obtained from 5 human donors who underwent resection of liver cancer. Replicate slices were collected from healthy margins of the resections and cultured for 4 or 6 days depending on the experimental protocol. In the Nonstimulation Protocol slices were cultured for 6 days and treated for the entire period with DMSO vehicle or 5 μM CRV431. In the Stimulation Protocol slices were rested for 1 day and then administered the cytokines, TGFβ and PDGF-BB, for 3 days to stimulate inflammation and fibrosis. DMSO vehicle, CRV431 (1 and 5 μM), Alk5i (10 μM), obeticholic acid (5 μM), elafibranor (5 μM), resmetirom ([…]), and Aramchol (5 μM) were administered individually as drug treatments in the Stimulation Protocol concurrent with TGFβ+PDGF-BB. Culture medium treatments were replaced daily.
# Four types of evaluations were conducted on the PCLS: (a) secretion of inflammation and fibrosis biomarkers into the culture medium, (b) histological staining and quantitation of Sirius red as a measure of tissue fibrosis, (c) gene expression of inflammation and fibrosis biomarkers by RT-PCR, and (d) RNA sequencing (RNA-Seq) of the complete transcriptome. Each of the four types of evaluation is described below: • (a) Biomarker secretion. Spent culture medium was collected daily from duplicate slices for each treatment. ELISAs were used to quantify secretion of monocyte chemoattractant protein (MCP-1), interleukin-6 (IL-6), tissue inhibitor of metalloproteinase-1 (TIMP1), hyaluronic acid, fibronectin, and collagen 1α1. For each donor the mean level of biomarker secretion in each treatment group was expressed as a percentage change relative to DMSO vehicle, the percentages averaged for all donors, and finally the mean daily percentage change calculated from all days of evaluation. Results are shown in FIG. 8A (secreted markers-% daily average change). • (b) Sirius red histological staining. […] Sirius red was quantified morphometrically in the histological sections as the percentage area with Sirius red staining in 10 sections from each treatment. In the Nonstimulation Protocol the quantity of Sirius red staining was expressed relative to the vehicle group. In the Stimulation Protocol the quantity of Sirius red staining was expressed relative to nonstimulated PCLS (0%) and TGFβ+PDGF-BB-stimulated+vehicle PCLS (100%). Results are shown in FIG. 8B (Sirius red staining for tissue fibrosis). • (c) Gene expression by RT-PCR. RNA was isolated from duplicate liver slices per treatment at the end of the experiments and evaluated by RT-PCR for 5 markers of inflammation and fibrosis: MCP-1, IL-6, TIMP1, αSMA, and collagen 1α1. β actin was used as a reference gene to calculate relative levels of each target gene RNA. […] Results are shown in FIG. 8C (gene expression by RT-PCR). • (d) Gene expression by RNA-Seq. RNA sequencing of the complete transcriptome (30 million reads per sample) was conducted on vehicle and 5 μM CRV431 treatment groups from 3 donors both from the Nonstimulation and Stimulation Protocols. Data were analyzed by bioinformatics software programs to identify genes that were differentially expressed between vehicle and CRV431 treatments.
# For the evaluation done for (d), 12 samples corresponding to 3 different donor slides which underwent 4 different treatments were studied. the comparisons carried out in this analysis are: (1) TGFb/PDGF+CRV vs TGFb/PDGF+Vehicle (V), and (2) Non-stimulated+CRV vs Non-stimulated+Vehicle. […] Table 1. Samples for evaluation (d)
# Quality Control check was performed in all samples. All samples had more than 30 million reads and a quality score average >35 for almost all the bases in the sequences. The duplication levels are expected as it is RNA sequencing, and different copies of the same RNA are expected to be present in the samples. All samples had good amount of reads and quality, therefore all samples passed the QC checked and were included in the analysis. […]
# [2] = tested on: human precision cut liver slices (PCLS); assay: PCLS RNA-Seq, general statements (protocol not stated); type: cell-based
# Procedure: PCLS were obtained from 5 human donors who underwent resection of liver cancer. Replicate slices were collected from healthy margins of the resections and cultured for 4 or 6 days depending on the experimental protocol. In the Nonstimulation Protocol slices were cultured for 6 days and treated for the entire period with DMSO vehicle or 5 μM CRV431. In the Stimulation Protocol slices were rested for 1 day and then administered the cytokines, TGFβ and PDGF-BB, for 3 days to stimulate inflammation and fibrosis. […]
# Four types of evaluations were conducted on the PCLS: (a) secretion of inflammation and fibrosis biomarkers into the culture medium, (b) histological staining and quantitation of Sirius red as a measure of tissue fibrosis, (c) gene expression of inflammation and fibrosis biomarkers by RT-PCR, and (d) RNA sequencing (RNA-Seq) of the complete transcriptome. […] ELISAs were used to quantify secretion of monocyte chemoattractant protein (MCP-1), interleukin-6 (IL-6), tissue inhibitor of metalloproteinase-1 (TIMP1), hyaluronic acid, fibronectin, and collagen 1α1. For each donor the mean level of biomarker secretion in each treatment group was expressed as a percentage change relative to DMSO vehicle, the percentages averaged for all donors, and finally the mean daily percentage change calculated from all days of evaluation. […]
# [3] = tested on: five different types of fibroblasts; assay: Cell viability, summary over five types of fibroblasts; type: cell-based, Human; conditions: at clinically relevant concentrations
compound,measurement,setting,value
CC[C@@H]1NC(=O)[C@H]([C@H](O)[C@H](C)CCCCCCNC(C)=O)N(C)C(=O)[C@H](C(C)C)N(C)C(=O)[C@H](CC(C)C)N(C)C(=O)[C@H](CC(C)C)N(C)C(=O)[C@@H](C)NC(=O)[C@H](C)NC(=O)[C@H](CC(C)C)N(C)C(=O)[C@H](C(C)C)NC(=O)[C@H](CC(C)C)N(C)C(=O)[C@@H](C)N(C)C1=O [CRV431],log2FoldChange,[1]; gene ACOT9,0.543
same,log2FoldChange,[1]; gene AP003119.3,−0.67
same,log2FoldChange,[1]; gene AREG,1.034
same,log2FoldChange,[1]; gene CCDC149,0.76
same,log2FoldChange,[1]; gene CDH11,−0.915
same,log2FoldChange,[1]; gene CXCL12,0.623
same,log2FoldChange,[1]; gene CYP24A1,−1.499
same,log2FoldChange,[1]; gene DDX60,−0.739
same,fold change in RNA,[1]; gene DKK1,+3.8 fold
same,log2FoldChange,[1]; gene DNAJB9,0.721
same,fold change in RNA,[1]; gene ESM1,−2.2 fold
same,log2FoldChange,[1]; gene GDPD5,−0.606
same,log2FoldChange,[1]; gene GMPPA,0.768
same,fold change in RNA,[1]; gene IFI44L,−4.8 fold
same,log2FoldChange,[1]; gene KRT7,0.563
same,log2FoldChange,[1]; gene MPEG1,0.584
same,log2FoldChange,[1]; gene MS4A4A,0.735
same,log2FoldChange,[1]; gene NCOA3,−1.438
same,fold change in RNA,[1]; gene NCOA3,−2.7 fold
same,log2FoldChange,[1]; gene NREP,−0.638
same,log2FoldChange,[1]; gene NUCB2,0.851
same,log2FoldChange,[1]; gene NUMA1,−0.537
same,log2FoldChange,[1]; gene PGM3,0.751
same,log2FoldChange,[1]; gene POU2F2,2.856
same,log2FoldChange,[1]; gene SERPINB2,1.255
same,log2FoldChange,[1]; gene SNHG3,0.665
same,log2FoldChange,[1]; gene SOWAHC,−0.601
same,log2FoldChange,[1]; gene SRGAP2B,−0.729
same,fold change in RNA,[1]; gene mIR-194-2,−7.9 fold
same,"expression of many fibrosis-related genes (more than 10 collagen genes, collagen hydroxylases and oxidases, ACTA2, VEGF, TIMPs)",[2],decreased expression
same,cell viability,[3],without causing any reduction in cell viability
